Counter-ions that a name gives are not always drawn. Like-named read-outs stand apart in the source and are kept apart here.
Assays:
[1] = system: pylorous ligated rats; assay: Antisecretory activity in the pylorous ligated rat model; assay type: in vivo, male Sprague-Dawley rats; settings: for inhibition in vivo at 12.5 mg/kg / inhibition in vivo at 25 mg/kg / inhibition in vivo at 50 mg/kg / inhibition in vivo at 100 mg/kg / inhibition in vivo at 6.3 mg/kg: Rattus norvegicus, 4 h; for inhibition in vivo at 6.3 mg/kg: oral dose 6.3 mg/kg
Method: To determine the antisecretory activity of the present compounds, the compounds were tested for such activity in pylorous ligated rats. In this test, male Sprague-Dawley rats weighing 170-190 g. were fasted for 24 hours. Water was allowed ad libitum. All groups were comprised of six rats. […] Water was withheld after drug administration. Ligation of the pyrloric sphincter was performed under ether anesthesia, and four hours after ligation the animals were sacrificed with CO2. The stomach was dissected out and the contents were expelled into a graduated centrifuge tube. The samples were centrifuged and the volume, less debris, was measured. Sample aliquots were titrated with 0.05 N NaOH to determine acid concentration. Pepsin activity was determined on an auto analyzer using hemoglobin as the substrate by the method of Anson. Group means for volume, acid and pepsin concentrations, and pepsin outputs were compared for statistically significant differences from control means by Student's t-test.

[2] = system: pentagastrin stimulated fistula dog; assay: Antisecretory activity in the pentagastrin stimulated fistula dog; assay type: in vivo, female beagle dogs; settings: pentagastrin 10 μg/kg s.c., 2 hours
Method: In addition to the test described in Example XXXVI, some of the present compounds were tested in dogs.
In this test, female beagle dogs weighing 5.5-7.5 kg. were surgically provided with gastric fistulas at the ventral wall of the stomach near the greater curvature and just proximal to the antrum. The animals were allowed to recover for three to four weeks before handling and training were begun, and experiments were started six to eight weeks after surgery. The individually housed dogs were fasted for 20-24 hours before use. Water was allowed ad lib. Treatment selection was determined by a randomized schedule which included control groups given vehicle (0.5% Methocel® solution) only. During the test period each dog was secured in a standing position with one collar around the neck and another around the lower abdomen. Before drug administration, the cannula plug of the gastric fistula was removed and the pH of the gastric juice was checked. Animals with acidic gastric juice (pH 4.0 or less) were replaced with alternate dogs. Then the drug was administered intragastrically […] through a special gastric cannula instillation plug, 30 minutes prior to subcutaneous administration of a gastric stimulant (pentagastrin, 10 μg/kg).
For each dog, collection of gastric juice was begun immediately after administration of the gastric stimulant and continued for two hours. The volumes of collected gastric juices were measured. The acid concentration and pepsin activity were determined for all samples by automated procedures. For the dog data, as recorded in Table 2, below, group means for volume (ml), acid concentration (acidity, mEq/l), pepsin concentration (mg/ml), acid output (mEq/2 hr), and pepsin output (mg/2 hr) were compared with the respective control means using Student's t-test. The results were also expressed as percent inhibition of the respective individual mean control values.
Group means for volume, acid and pepsin concentrations, acid and pepsin outputs were compared for statistically significant differences from control means by Student's t-test.

[3] = oral dose 50 mg/kg, negative sign means stimulated
[4] = oral dose 12.5 mg/kg, read-out: Percent inhibition of acid output
[5] = oral dose 12.5 mg/kg, read-out: Percent inhibition of acidity
[6] = oral dose 12.5 mg/kg, read-out: Percent inhibition of volume
[7] = oral dose 25 mg/kg, read-out: Percent inhibition of acid output
[8] = oral dose 25 mg/kg, read-out: Percent inhibition of acidity
[9] = oral dose 25 mg/kg, read-out: Percent inhibition of volume
[10] = oral dose 50 mg/kg, negative sign means stimulated, read-out: Percent inhibition of pepsin
[11] = oral dose 50 mg/kg, negative sign means stimulated, read-out: Percent inhibition of pepsin output
[12] = oral dose 50 mg/kg, read-out: Percent inhibition of acid output
[13] = oral dose 50 mg/kg, read-out: Percent inhibition of acidity
[14] = oral dose 50 mg/kg, read-out: Percent inhibition of volume
[15] = oral dose 100 mg/kg, read-out: Percent inhibition of acid output
[16] = oral dose 100 mg/kg, read-out: Percent inhibition of acidity
[17] = oral dose 100 mg/kg, read-out: Percent inhibition of volume

2-(1,2,3,4-Tetrahydro-4-pyridyl)-3-methoxy-5-(1,2-dimethylheptyl)phenol hydrochloride [XXVIII]
Percent inhibition of acid output ([1]; oral dose 12.5 mg/kg): 7.5% | Percent inhibition of acidity ([1]; oral dose 12.5 mg/kg): 19.2% | Percent inhibition of pepsin output ([1]; oral dose 12.5 mg/kg): 10.9% | Percent inhibition of volume ([1]; oral dose 12.5 mg/kg): -14.5% | Percent inhibition of pepsin ([1]; oral dose 12.5 mg/kg, negative sign means stimulated): 22.5% | Percent inhibition of acid output ([1]; oral dose 25 mg/kg): 13.1% | Percent inhibition of acidity ([1]; oral dose 25 mg/kg): 27.2% | Percent inhibition of pepsin output ([1]; oral dose 25 mg/kg): 0.8% | Percent inhibition of volume ([1]; oral dose 25 mg/kg): -19.5% | Percent inhibition of pepsin ([1]; oral dose 25 mg/kg, negative sign means stimulated): 17.2% | Percent inhibition of acid output ([1]; oral dose 50 mg/kg): 68.2% | Percent inhibition of acidity ([1]; oral dose 50 mg/kg): 67.1% | Percent inhibition of volume ([1]; oral dose 50 mg/kg): 3.7% | Percent inhibition of pepsin [1, 3]: 7.5% | Percent inhibition of pepsin output [1, 3]: 9.1% | Percent inhibition of acid output ([1]; oral dose 100 mg/kg): 64.4% | Percent inhibition of acidity ([1]; oral dose 100 mg/kg): 71.7% | Percent inhibition of pepsin output ([1]; oral dose 100 mg/kg): 1.8% | Percent inhibition of volume ([1]; oral dose 100 mg/kg): -23.1% | Percent inhibition of pepsin ([1]; oral dose 100 mg/kg, negative sign means stimulated): 20.9% | % Inhibition of acid output ([2]; dose 10 mg/kg): 16.5% | % Inhibition of acidity ([2]; dose 10 mg/kg): 7.7% | % Inhibition of pepsin ([2]; dose 10 mg/kg): 29.7% | % Inhibition of pepsin output ([2]; dose 10 mg/kg): 35.1% | % Inhibition of volume ([2]; dose 10 mg/kg): 9.2% | % Inhibition of acid output ([2]; dose 20 mg/kg): 17.9% | % Inhibition of acidity ([2]; dose 20 mg/kg): 26.2% | % Inhibition of pepsin ([2]; dose 20 mg/kg): 48.0% | % Inhibition of pepsin output ([2]; dose 20 mg/kg): 41.2% | % Inhibition of volume ([2]; dose 20 mg/kg): -12.6%

CCCCCC(C)C(C)c1cc(O)c(C2=CCN(Cc3ccccc3)CC2)c(O)c1.Cl (centres unmarked) [Example XIV, 2-(N-Benzyl-1,2,3,6-tetrahydro-4-pyridyl)-5-(1,2-dimethylheptyl) resorcinol hydrochloride]
inhibition in vivo at 12.5 mg/kg [1, 4]: -17.3% | inhibition in vivo at 12.5 mg/kg [1, 5]: -0.5% | inhibition in vivo at 12.5 mg/kg [1, 6]: -5.9% | inhibition in vivo at 25 mg/kg [1, 7]: 12.5% | inhibition in vivo at 25 mg/kg [1, 8]: 9.2% | inhibition in vivo at 25 mg/kg [1, 9]: 4.9% | inhibition in vivo at 50 mg/kg [1, 10]: 12.7% | inhibition in vivo at 50 mg/kg [1, 11]: 52.4% | inhibition in vivo at 50 mg/kg [1, 12]: 57.6% | inhibition in vivo at 50 mg/kg [1, 13]: 24.7% | inhibition in vivo at 50 mg/kg [1, 14]: 48.9% | inhibition in vivo at 100 mg/kg [1, 15]: 79.7% | inhibition in vivo at 100 mg/kg [1, 16]: 31.6% | inhibition in vivo at 100 mg/kg [1, 17]: 72.1% | % Inhibition of acid output ([2]; dose 10 mg/kg): -10.4% | % Inhibition of acidity ([2]; dose 10 mg/kg): 1.2% | % Inhibition of pepsin ([2]; dose 10 mg/kg): -10.0% | % Inhibition of pepsin output ([2]; dose 10 mg/kg): -23.1% | % Inhibition of volume ([2]; dose 10 mg/kg): -12.3%

CC(C)c1cc(O)c(C2=CCNCC2)c(O)c1 [XII, 2-(1,2,3,6-Tetrahydro-4-pyridyl)-5-isopropyl resorcinol hydrochloride]
inhibition in vivo at 50 mg/kg [1, 10]: -3.9% | inhibition in vivo at 50 mg/kg [1, 11]: 12.8% | inhibition in vivo at 50 mg/kg [1, 12]: 16.6% | inhibition in vivo at 50 mg/kg [1, 13]: 1.4% | inhibition in vivo at 50 mg/kg [1, 14]: 15.5%

CCCCCc1cc(O)c(C2=CCN(C)CC2)c(O)c1 [Example VIII, 2-(N-Methyl-1,2,3,6-tetrahydro-4-pyridyl)-5-pentyl resorcinol hydrochloride]
inhibition in vivo at 50 mg/kg [1, 10]: -2% | inhibition in vivo at 50 mg/kg [1, 11]: 55.9% | inhibition in vivo at 50 mg/kg [1, 12]: 74.4% | inhibition in vivo at 50 mg/kg [1, 13]: 41.5% | inhibition in vivo at 50 mg/kg [1, 14]: 57.4%

CCCCCc1cc(O)c(C2CC3CCC(C2)N3C)c(O)c1 (centres unmarked) [XXIV, 2-(N-Methyl-2,6-ethylidene-4-piperidino)-5-pentyl resorcinol hydrochloride]
inhibition in vivo at 50 mg/kg [1, 10]: 21% | inhibition in vivo at 50 mg/kg [1, 11]: 22.2% | inhibition in vivo at 50 mg/kg [1, 12]: 0.9% | inhibition in vivo at 50 mg/kg [1, 13]: -2.5% | inhibition in vivo at 50 mg/kg [1, 14]: 2.8%

CCCCCC(C)C(C)c1cc(O)c(C2=CCN(CCc3ccccc3)CC2)c(O)c1 (centres unmarked) [Example XX, 2-(N-Phenethyl-1,2,3,6-tetrahydro-4-pyridyl)-5-(1,2-dimethylheptyl) resorcinol hydrochloride]
inhibition in vivo at 12.5 mg/kg [1, 4]: 9.7% | inhibition in vivo at 12.5 mg/kg [1, 5]: 8.5% | inhibition in vivo at 12.5 mg/kg [1, 6]: 2.6% | inhibition in vivo at 25 mg/kg [1, 7]: 17.1% | inhibition in vivo at 25 mg/kg [1, 8]: 1.7% | inhibition in vivo at 25 mg/kg [1, 9]: 16.9% | inhibition in vivo at 50 mg/kg [1, 12]: 47.8% | inhibition in vivo at 50 mg/kg [1, 13]: 10.7% | inhibition in vivo at 50 mg/kg [1, 14]: 42.8% | inhibition in vivo at 100 mg/kg [1, 15]: 51.2% | inhibition in vivo at 100 mg/kg [1, 16]: 19.5% | inhibition in vivo at 100 mg/kg [1, 17]: 44.8%

CC(C)c1cc(O)c(C2=CCN(C)CC2)c(O)c1.Cl [Example VI, 2-(N-Methyl-1,2,3,6-tetrahydro-4-pyridyl)-5-isopropyl resorcinol hydrochloride]
inhibition in vivo at 6.3 mg/kg ([1]; negative sign means stimulated, read-out: Percent inhibition of pepsin): -13.6% | inhibition in vivo at 6.3 mg/kg ([1]; read-out: Percent inhibition of acid output): 23.4% | inhibition in vivo at 6.3 mg/kg ([1]; read-out: Percent inhibition of acidity): 7% | inhibition in vivo at 6.3 mg/kg ([1]; read-out: Percent inhibition of pepsin output): 7% | inhibition in vivo at 6.3 mg/kg ([1]; read-out: Percent inhibition of volume): 18.9% | inhibition in vivo at 12.5 mg/kg ([1]; oral dose 12.5 mg/kg, negative sign means stimulated, read-out: Percent inhibition of pepsin): -25.3% | inhibition in vivo at 12.5 mg/kg [1, 4]: 59.4% | inhibition in vivo at 12.5 mg/kg [1, 5]: 21.6% | inhibition in vivo at 12.5 mg/kg ([1]; oral dose 12.5 mg/kg, read-out: Percent inhibition of pepsin output): 41.2% | inhibition in vivo at 12.5 mg/kg [1, 6]: 49.8% | inhibition in vivo at 25 mg/kg ([1]; oral dose 25 mg/kg, negative sign means stimulated, read-out: Percent inhibition of pepsin): -22.3% | inhibition in vivo at 25 mg/kg [1, 7]: 80.9% | inhibition in vivo at 25 mg/kg [1, 8]: 49.9% | inhibition in vivo at 25 mg/kg ([1]; oral dose 25 mg/kg, read-out: Percent inhibition of pepsin output): 60.2% | inhibition in vivo at 25 mg/kg [1, 9]: 66.1% | inhibition in vivo at 50 mg/kg [1, 10]: -38.6% | inhibition in vivo at 50 mg/kg [1, 11]: 54.7% | inhibition in vivo at 50 mg/kg [1, 12]: 84.4% | inhibition in vivo at 50 mg/kg [1, 13]: 51.7% | inhibition in vivo at 50 mg/kg [1, 14]: 67.3% | inhibition in vivo at 100 mg/kg ([1]; oral dose 100 mg/kg, negative sign means stimulated, read-out: Percent inhibition of pepsin): -48.8% | inhibition in vivo at 100 mg/kg [1, 15]: 87.7% | inhibition in vivo at 100 mg/kg [1, 16]: 62.1% | inhibition in vivo at 100 mg/kg ([1]; oral dose 100 mg/kg, read-out: Percent inhibition of pepsin output): 53.3% | inhibition in vivo at 100 mg/kg [1, 17]: 67.5% | % Inhibition of acid output ([2]; dose 20 mg/kg): 26.6% | % Inhibition of acidity ([2]; dose 20 mg/kg): 36.6% | % Inhibition of pepsin ([2]; dose 20 mg/kg): 62.7% | % Inhibition of pepsin output ([2]; dose 20 mg/kg): 57.1% | % Inhibition of volume ([2]; dose 20 mg/kg): -17.6%

CCCCCC(C)C(C)c1cc(O)c(C2CCNCC2)c(O)c1 (centres unmarked) [Example XVI, 2-(4-Piperidino)-5-(1,2-dimethylheptyl) resorcinol hydrochloride]
inhibition in vivo at 50 mg/kg [1, 10]: 45.1% | inhibition in vivo at 50 mg/kg [1, 11]: 40.3% | inhibition in vivo at 50 mg/kg [1, 12]: 46.6% | inhibition in vivo at 50 mg/kg [1, 13]: 50.7% | inhibition in vivo at 50 mg/kg [1, 14]: -8.6% | % Inhibition of acid output ([2]; dose 10 mg/kg): 20.3% | % Inhibition of acidity ([2]; dose 10 mg/kg): 20.9% | % Inhibition of pepsin ([2]; dose 10 mg/kg): 39.7% | % Inhibition of pepsin output ([2]; dose 10 mg/kg): 39.1% | % Inhibition of volume ([2]; dose 10 mg/kg): -0.2%
